According to patent US8901159B2, “Inhibition of inflammation by simultaneous blockade of multiple prostanoid receptors” (Allergan, Inc., priority 2010, dated 2014):

Key:
[1] = molecular target: T1, human prostanoid EP4 receptor (Homo sapiens, UniProt P35408); assay: PG antagonist activity, Ca2+ signal in human recombinant prostanoid receptor stable cell line; type: cell-based; conditions: parameter and unit not given
T1 construct: expressed in transfected cells
Description: (§1) The above compounds were tested for PG antagonist activity as follows using human recombinant prostanoid receptor (DP1, EP1-4, FP, IP and TP) stable cell lines:
(§2) In order to measure the response of Gs and Gi coupled prostanoid receptors as a Ca^2+ signal, chimeric G protein cDNAs were used. Stable cell lines over-expressing human prostanoid DP1, EP1-4, FP, IP, and TP receptors were established as described in U.S. Ser. No. 61/410,153.

[2] = molecular target: T2, human prostanoid EP2 receptor (Homo sapiens, UniProt P43116); assay: as above; type: cell-based; conditions: parameter and unit not given
T2 construct: expressed in transfected cells
T2 sequence (P43116 whole entry): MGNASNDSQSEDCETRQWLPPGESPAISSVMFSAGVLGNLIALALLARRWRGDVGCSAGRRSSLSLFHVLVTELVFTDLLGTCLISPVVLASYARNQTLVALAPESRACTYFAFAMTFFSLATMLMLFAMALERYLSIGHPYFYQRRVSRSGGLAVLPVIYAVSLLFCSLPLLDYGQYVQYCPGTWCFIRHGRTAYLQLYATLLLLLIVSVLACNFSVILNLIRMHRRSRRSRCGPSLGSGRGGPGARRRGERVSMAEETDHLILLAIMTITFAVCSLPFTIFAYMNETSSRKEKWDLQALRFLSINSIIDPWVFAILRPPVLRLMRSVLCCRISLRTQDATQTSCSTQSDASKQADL
Description: as §1, §2

[3] = molecular target: T3, human prostanoid EP1 receptor (Homo sapiens, UniProt P34995); assay: as above; type: cell-based; conditions: parameter and unit not given
T3 construct: expressed in transfected cells
T3 sequence (P34995 1-402): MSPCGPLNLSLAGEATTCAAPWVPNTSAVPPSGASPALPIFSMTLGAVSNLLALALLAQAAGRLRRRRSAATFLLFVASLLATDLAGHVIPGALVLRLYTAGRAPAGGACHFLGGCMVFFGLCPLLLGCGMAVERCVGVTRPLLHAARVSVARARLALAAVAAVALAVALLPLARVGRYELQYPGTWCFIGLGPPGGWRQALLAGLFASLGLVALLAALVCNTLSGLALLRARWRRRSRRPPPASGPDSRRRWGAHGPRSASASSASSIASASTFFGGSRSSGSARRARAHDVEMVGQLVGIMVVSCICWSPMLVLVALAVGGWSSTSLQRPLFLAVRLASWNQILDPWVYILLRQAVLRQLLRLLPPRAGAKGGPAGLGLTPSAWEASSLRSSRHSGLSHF
Description: as §1, §2

[4] = molecular target: T4, human prostanoid DP1 receptor (Homo sapiens, UniProt Q13258); assay: as above; type: cell-based; conditions: parameter and unit not given
T4 construct: expressed in transfected cells
T4 sequence (Q13258 1-359): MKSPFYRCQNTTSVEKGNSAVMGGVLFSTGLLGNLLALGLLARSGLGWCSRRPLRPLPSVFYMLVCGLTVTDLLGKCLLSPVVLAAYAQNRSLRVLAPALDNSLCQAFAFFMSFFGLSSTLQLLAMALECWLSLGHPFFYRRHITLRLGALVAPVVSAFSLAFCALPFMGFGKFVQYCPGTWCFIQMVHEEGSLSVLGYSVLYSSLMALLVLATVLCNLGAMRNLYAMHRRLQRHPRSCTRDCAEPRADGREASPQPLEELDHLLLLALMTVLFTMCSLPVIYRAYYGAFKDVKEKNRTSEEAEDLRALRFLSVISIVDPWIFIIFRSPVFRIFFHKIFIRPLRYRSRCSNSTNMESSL
Description: as §1, §2

[5] = molecular target: T5, human prostanoid TP receptor (Homo sapiens, UniProt P21731); assay: as above; type: cell-based; conditions: parameter and unit not given
T5 construct: expressed in transfected cells
T5 sequence (P21731 1-343): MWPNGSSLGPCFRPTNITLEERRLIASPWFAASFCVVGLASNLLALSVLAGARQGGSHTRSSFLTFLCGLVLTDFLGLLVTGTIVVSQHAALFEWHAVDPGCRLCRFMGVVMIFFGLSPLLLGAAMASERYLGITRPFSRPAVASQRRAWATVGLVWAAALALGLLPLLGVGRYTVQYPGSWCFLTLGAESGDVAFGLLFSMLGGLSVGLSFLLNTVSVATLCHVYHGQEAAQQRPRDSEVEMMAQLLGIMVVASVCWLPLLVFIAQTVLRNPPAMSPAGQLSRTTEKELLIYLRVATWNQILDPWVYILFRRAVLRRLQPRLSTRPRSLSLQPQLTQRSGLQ
Description: as §1, §2

[6] = molecular target: T6, human prostanoid IP receptor (Homo sapiens, UniProt P43119); assay: as above; type: cell-based; conditions: parameter and unit not given
T6 construct: expressed in transfected cells
T6 sequence (P43119 whole entry): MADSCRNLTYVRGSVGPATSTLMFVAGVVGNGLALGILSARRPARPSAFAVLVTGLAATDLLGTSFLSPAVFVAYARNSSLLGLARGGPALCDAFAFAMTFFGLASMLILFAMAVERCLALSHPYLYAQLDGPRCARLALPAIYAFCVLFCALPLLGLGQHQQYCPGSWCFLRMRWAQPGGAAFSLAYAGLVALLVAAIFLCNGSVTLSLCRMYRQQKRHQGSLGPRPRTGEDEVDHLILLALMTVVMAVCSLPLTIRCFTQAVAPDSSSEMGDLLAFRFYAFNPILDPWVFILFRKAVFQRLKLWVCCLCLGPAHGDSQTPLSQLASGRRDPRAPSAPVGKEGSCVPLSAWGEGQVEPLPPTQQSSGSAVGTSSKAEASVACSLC
Description: as §1, §2

[7] = molecular target: T7, human prostanoid EP3 receptor (Homo sapiens, UniProt P43115); assay: as above; type: cell-based; conditions: parameter and unit not given
T7 construct: expressed in transfected cells
T7 sequence (P43115 1-390): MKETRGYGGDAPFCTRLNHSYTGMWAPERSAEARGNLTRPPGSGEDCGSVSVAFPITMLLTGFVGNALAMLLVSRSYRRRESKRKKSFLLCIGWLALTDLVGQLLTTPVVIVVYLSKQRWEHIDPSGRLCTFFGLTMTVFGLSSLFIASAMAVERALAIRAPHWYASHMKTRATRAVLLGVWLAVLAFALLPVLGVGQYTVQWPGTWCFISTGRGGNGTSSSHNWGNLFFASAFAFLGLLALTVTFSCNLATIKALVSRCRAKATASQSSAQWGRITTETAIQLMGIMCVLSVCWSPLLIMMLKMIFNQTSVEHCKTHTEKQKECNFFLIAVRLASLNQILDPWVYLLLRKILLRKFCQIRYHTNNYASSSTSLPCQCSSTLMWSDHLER
Description: as §1, §2

[8] = molecular target: T8, human prostanoid FP receptor (Homo sapiens, UniProt P43088); assay: as above; type: cell-based; conditions: parameter and unit not given
T8 construct: expressed in transfected cells
T8 sequence (P43088 whole entry): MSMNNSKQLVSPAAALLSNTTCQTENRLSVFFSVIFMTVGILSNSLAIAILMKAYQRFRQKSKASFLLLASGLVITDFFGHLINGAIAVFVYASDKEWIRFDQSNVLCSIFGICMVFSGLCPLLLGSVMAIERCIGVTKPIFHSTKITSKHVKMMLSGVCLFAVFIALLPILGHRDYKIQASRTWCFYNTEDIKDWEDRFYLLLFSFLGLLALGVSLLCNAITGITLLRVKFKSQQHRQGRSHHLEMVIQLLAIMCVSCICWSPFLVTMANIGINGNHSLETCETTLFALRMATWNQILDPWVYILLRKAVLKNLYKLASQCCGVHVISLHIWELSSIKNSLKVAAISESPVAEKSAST
Description: as §1, §2

[9] = tested on: human recombinant prostanoid receptor (DP1, EP1-4, FP, IP and TP); conditions: stated in words; IUPHAR database referred to; cited from earlier work
[10] = tested on: human recombinant prostanoid receptor (DP1, EP1-4, FP, IP and TP); assay: Prostanoid receptor blockade profile stated in words; type: cell-based
Description: as §1, §2

[11] = tested on: laser-induced neovascularization (CNV); assay: Rat laser-induced neovascularization (CNV) model; type: in vivo; conditions: formulated in 70% PEG, FIG. 15, vs vehicle, EXAMPLE 8, SC-51322 and their combination
Description: The compound of Example 1 was also evaluated for activity in an in-vivo Rat laser-induced neovascularization (CNV) model.
In this test, compounds were formulated in 70% polyethylene glycol (PEG). CNV is induced by laser burn.

[12] = tested on: Experimental autoimmune uveoretinitis (EAU); assay: Rat Experimental Autoimmune Uveoretinitis (EAU) model; type: in vivo; conditions: FIG. 14
[13] = rat EAU, vs all of the comparators

T1 sequence (P35408 whole entry): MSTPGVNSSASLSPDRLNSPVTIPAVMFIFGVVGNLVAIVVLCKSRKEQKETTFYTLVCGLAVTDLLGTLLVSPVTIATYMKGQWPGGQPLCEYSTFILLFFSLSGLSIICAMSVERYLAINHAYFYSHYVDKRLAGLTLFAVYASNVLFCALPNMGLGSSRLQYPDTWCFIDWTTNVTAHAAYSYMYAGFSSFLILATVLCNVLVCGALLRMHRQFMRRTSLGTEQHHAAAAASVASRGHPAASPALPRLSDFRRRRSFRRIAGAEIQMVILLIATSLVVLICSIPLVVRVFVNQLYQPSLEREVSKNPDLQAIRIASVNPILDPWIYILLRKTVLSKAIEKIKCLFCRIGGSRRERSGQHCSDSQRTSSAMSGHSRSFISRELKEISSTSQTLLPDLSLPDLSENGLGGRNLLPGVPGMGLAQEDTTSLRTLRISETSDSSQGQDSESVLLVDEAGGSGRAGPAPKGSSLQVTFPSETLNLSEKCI

Compound	EP4 (PG antagonist activity) [1]	EP2 (PG antagonist activity) [2]	EP1 (PG antagonist activity) [3]	DP (PG antagonist activity) [4]	TP (PG antagonist activity) [5]	IP (PG antagonist activity) [6]	EP3 (PG antagonist activity) [7]	FP (PG antagonist activity) [8]	prostanoid receptor blockade profile of comparator [9]	prostanoid receptor selectivity / blockade profile [10]	clinical score (angiostatic efficacy) [11]	clinical score ([12]; rat EAU induced by M18 peptide, vs vehicle, EXAMPLE 8, SC-51322 and their combination)	amount of invasive cells in the aqueous humor [12, 13]	amount of protein in the aqueous humor [12, 13]
CCCCCCCCCNC(=O)c1coc(C2C3CC[C@@H](O3)[C@@H]2Cc2cc(F)ccc2CCC(=O)O)n1 (stereo partly drawn) [Example 4, 3-{2R-[3R-(4-Nonylcarbamoyl-oxazol-2-yl)-7-oxa-bicyclo[2.2.1]hept-2-ylmethyl]-4-fluoro-phenyl}-propionic acid]	92	4300	660	17	<1	1900	4100	12						
CCCCCCCCCNC(=O)c1coc(C2C3CCC(O3)C2Cc2cc(F)ccc2/C=C/C(=O)O)n1 (stereo not drawn) [Example 3]	180		4100	270	<1			230						
O=C(O)CCc1ccc(F)cc1CC1C2CCC(O2)C1c1nc(C(=O)NCCCCC2CCCCC2)co1 (stereo not drawn) [Example 6]	170		1750	50	<1			35						
O=C(CCSCc1ccco1)NNC(=O)N1Cc2ccccc2Oc2ccc(Cl)cc21 [SC-51322]									blocks the EP1 receptor, only					
CCCCCCCCNC(=O)c1coc(C2C3CCC(O3)C2Cc2cc(F)ccc2CCC(=O)O)n1 (stereo not drawn) [Example 5]	160		1400	55	<1	2400	4700	25						
O=C(O)CCc1ccc(F)cc1C[C@H]1[C@@H]2CCC(O2)[C@H]1c1nc(C(=O)NCCCCC2CCCCC2)co1 [EXAMPLE 8, 3-(2-{(1S,2R,3S)-3-[4-(4-Cyclohexyl-butylcarbamoyl)-oxazol-2-yl]-7-oxa-bicyclo[2.2.1]hept-2-ylmethyl}-4-fluoro-phenyl)-propionic acid]										selective for DP1, EP4, FP and TP receptors				
CCCCCCCCNC(=O)c1coc(C2C3CCC(O3)C2Cc2cc(F)ccc2/C=C/C(=O)O)n1 (stereo not drawn) [Example 2]	120		2000	220	<1			300						
O=C(O)/C=C/c1ccc(F)cc1C[C@@H]1C(c2nc(C(=O)NCCCCC3CCCCC3)co2)C2CC[C@H]1O2 (stereo partly drawn) [Example 1, (E)-3-(2R-{3R-[4-(4-Cyclohexyl-butylcarbamoyl)-oxazol-2-yl]-7-oxa-bicyclo[2.2.1]hept-2-ylmethyl}-4-fluoro-phenyl)-acrylic acid]	60		380	71	<1		5500	59			better clinical score than any of the comparators except the combination	better clinical score than any of the comparators except the combination	lower amount	lower amount
